As a reminder, the pKa is the pH at which an ionisable group is half protonated. A low value points to a stronger acid or weaker base. By Km is commonly meant the substrate concentration at which the rate is half of its maximum.

This note sets out measurements from US5191073A, “Chromogenic merocyanine enzyme substrates” (priority 1992, dated 1993).

Data set [1] can be described thus: Study of Chromogenic Substrate Properties: absorbance maxima, shift, extinction coefficient (Table D). Format: physicochemical. Particulars: for λ max Chromogen / λ max Substrate: colour in words where no value; for ε × 10^3 Chromogen / ε × 10^3 Substrate: values are ε × 10^3; for λ max Shift: shift from substrate to chromogen.
Data set [2] can be described thus: Study of Chromogenic Substrate Properties: pKa (Table D). The data set is classed as physicochemical.
Data set [3] has as its system β-galactosidase. Put plainly: Study of Chromogenic Substrate Properties: enzyme turnover, Km and Kcat (Table D). Format: biochemical.
The test system of data set [4] is β-galactosidase. Put plainly: colour change of reaction mixture or extract on treatment with β-galactosidase. Format: biochemical. How it is done:
3-Ethyl-2-(4'-β-D-galactopyranosyloxynaphthyl-1'-vinylene)-benzothiazolium iodide (20)--Approximately equal amounts of 4-(β-D-galactopyranosyloxy) -1-naphthaldehyde (5) and 2-methylbenzothiazole ethiodide (8) (H. Richter & R. L. Dresser, supra) were heated at reflux for about 1 minute in ethanol containing a small amount of piperidine. The initially colorless mixture became red-orange during this time. The presence of (20) in the reaction mixture was determined by mixing a portion of the reaction mixture with an equal amount of dimethylformamide, diluting this with 0.1M phosphate buffer pH=7.0, and then treating the resulting solution with β-galactosidase.
3-Ethyl-2-(6'-β-D-galactopyranosyloxynaphthyl-2'-vinylene)-benzoselenazolium iodide (24)--A mixture of 6-(β-D-galactopyranosyloxy)-2-naphthaldehyde (6) (34 mg, 0.1 mmole), 2-methylbenzoselenazole ethiodide (12) (H. Richter & R. L. Dresser, supra) (35 mg, 0.1 mmole) and 0.5 mL of anhydrous pyridine was heated in a 70° C. oil bath for 20 hours.
1-Ethyl-4-(4'-β-D-galactopyranosyloxynaphthyl-1'-vinylene)-quinoliniumiodide (29)--A mixture of 4-(β-D-galactopyranosyloxy)-naphthaldehyde (5) (34 mg, 0.1 mmole), lepidine ethiodide (28) (H. Richter & R. L. Dresser, supra) (30 mg, 0.1 mmole) and 0.5 mL of anhydrous pyridine was heated in a 70° C. oil bath for 3 hours. Then an additional of 60 mg of lepidine ethiodide (28), was added and the reaction mixture was allowed to react in the 70° C. oil bath for a total of 20 hours.

Consider `CC[N+]1=C(C=Cc2ccc(O[C@@H]3O[C@H](CO)[C@H](O)[C@H](O)[C@H]3O)cc2)C(C)(C)c2ccccc21` [Compound 16, 1-Ethyl-2-(4'-β-D-galactopyranosyloxystyryl)-3,3-dimethylindolenium iodide], for which, in data set [1], the “λ max Chromogen” value is 522, the “ε × 10^3 Chromogen” value was found to be 45.0, the “λ max Shift” value is recorded as 116 and the “λ max Substrate” value is given as 406. The “ε × 10^3 Substrate” value in data set [1] worked out at 25.3. The pKa in data set [2] was found to be 7.3. Moreover, in the data set with β-galactosidase [3], the Kcat is 1.43 × 10^3 mole/min per mole active site and the Michaelis-Menten constant (Km) came out at 18 µM.

Take `CC[N+]1=C(C=Cc2ccc(O[C@@H]3O[C@H](CO)[C@H](O)[C@H](O)[C@H]3O)c3ccccc23)C(C)(C)c2ccccc21` [Compound 17, 1-Ethyl-2-(4'-β-D-galactopyranosyloxynaphthyl-1-vinylene)-3,3-dimethylindolinium iodide]: in data set [1], the “λ max Chromogen” value turned out to be 580, the “ε × 10^3 Chromogen” value is reported as 82.0, the “λ max Shift” value is given as 124 and the “λ max Substrate” value is recorded as 456. In data set [1], the “ε × 10^3 Substrate” value is 28.0. Moreover, in data set [2], the pKa turned out to be 6. In the data set with β-galactosidase [3], the Kcat is 7.8 × 10^3 mole/min per mole active site and the Km worked out at 90 µM.

Consider `CC[N+]1=C(C=Cc2ccc3cc(O[C@@H]4O[C@H](CO)[C@H](O)[C@H](O)[C@H]4O)ccc3c2)C(C)(C)c2ccccc21` [Compound 18, 1-Ethyl-2-(6'-β-D-galactopyranosyloxynaphthyl-2'-vinylene)-3,3-dimethylindolenium iodide], for which, in data set [1], the “λ max Chromogen” value worked out at 530, the “λ max Shift” value is reported as 100, the “λ max Substrate” value turned out to be 430 and the “ε × 10^3 Substrate” value was 32.2. Moreover, the pKa in data set [2] was 8.3. For the same compound, in the data set with β-galactosidase [3], the Kcat is 1.3 × 10^4 mole/min per mole active site and the Km was determined as 80 µM.

On to `CC[n+]1c(C=Cc2ccc(O[C@@H]3O[C@H](CO)[C@H](O)[C@H](O)[C@H]3O)cc2)sc2ccccc21.[Cl-]` [Compound 19, 3-Ethyl-2-(4'-β-D-galactopyranosyloxystyryl) benzothiazolium chloride], for which, in data set [1], the “λ max Chromogen” value was 492, the “ε × 10^3 Chromogen” value is given as 43.0, the “λ max Shift” value is reported as 99 and the “λ max Substrate” value came out at 393. The compound further showed a pKa in data set [2] of 7.6. Further, in the data set on β-galactosidase [3], the Kcat was 3.04 × 10^3 mole/min per mole active site and the Km came to 17 µM.

As to `CC[n+]1c(C=Cc2ccc(O[C@@H]3O[C@H](CO)[C@H](O)[C@H](O)[C@H]3O)c3ccccc23)sc2ccccc21` [Compound 20, 3-Ethyl-2-(4'-β-D-galactopyranosyloxynaphthyl-1'-vinylene)-benzothiazolium iodide], in data set [1], the “λ max Chromogen” value is “violet” and the “λ max Substrate” value was “yellow”. Also, the “colour change on addition of β-galactosidase” value in the data set with β-galactosidase [4] (dimethylformamide diluted with 0.1M phosphate buffer pH=7.0) is listed as “turned from yellow in color to violet”.

With `CC[n+]1c(C=Cc2ccc(O[C@@H]3O[C@H](CO)[C@H](O)[C@H](O)[C@H]3O)c3ccccc23)sc2cc(OC)ccc21` [Compound 21, 3-Ethyl-2-(4'-β-D-galactopyranosyloxynaphthyl-1'-vinylene)-6-methoxybenzothiazolium iodide], in data set [1], the “λ max Chromogen” value is on record as 598, the “ε × 10^3 Chromogen” value was determined as 80.1, the “λ max Shift” value came out at 176 and the “λ max Substrate” value was found to be 422. The “ε × 10^3 Substrate” value in data set [1] is 10.5. Further, the pKa in data set [2] is 6.6. In addition, in the data set with β-galactosidase [3], the Kcat was 2.8 × 10^3 mole/min per mole active site and the Michaelis constant (Km) is 430 µM.

`C[n+]1c(/C=C/c2ccc(O[C@@H]3O[C@H](CO)[C@H](O)[C@H](O)[C@H]3O)c3ccccc23)sc2ccc3ccccc3c21` [Compound 22, 2-(4'-β-D-galactopyranosyloxynaphthyl-1'-vinylene)-3-methyl-β-naphthothiazolium iodide]: in data set [1], the “λ max Chromogen” value is recorded as 610, the “λ max Shift” value is 140 and the “λ max Substrate” value is 470. The pKa in data set [2] came to 7.

Consider `CC[n+]1c(C=Cc2ccc(O[C@@H]3O[C@H](CO)[C@H](O)[C@H](O)[C@H]3O)c3ccccc23)sc2ccc(C)cc21` [Compound 23, 3-Ethyl-2-(4'-β-D-galactopyranosyloxynaphthyl-1'-vinylene)-5-methylbenzothiazolium iodide], for which, in data set [1], the “λ max Chromogen” value is “blue” and the “λ max Substrate” value was “yellow”.

As for `CC[n+]1c(C=Cc2ccc3cc(O[C@@H]4O[C@H](CO)[C@H](O)[C@H](O)[C@H]4O)ccc3c2)[se]c2ccccc21` [Compound 24, 3-Ethyl-2-(6'-β-D-galactopyranosyloxynaphthyl-2'-vinylene)-benzoselenazolium iodide], in data set [1], the “λ max Chromogen” value is given as “purple” and the “λ max Substrate” value was “yellow”. In addition, the “colour change on addition of β-galactosidase” value with β-galactosidase [4] (0.3M bicene buffer (pH 7.9), β-galactosidase and a drop of 1N NaOH) is “turned to purple immediately”.

On to `Cc1ccc2oc(C=Cc3ccc(O[C@@H]4O[C@H](CO)[C@H](O)[C@H](O)[C@H]4O)c4ccccc34)[n+](CCC(=O)O)c2c1` [Compound 25, 3-(2"-Carboxyethyl)-2-(4'-β-D-galactopyranosyloxynaphthyl-1'-vinylene)-5-methyl benzoxazolium bromide], for which, in data set [1], the “λ max Chromogen” value was 550, the “ε × 10^3 Chromogen” value is 50.1, the “λ max Shift” value was 130 and the “λ max Substrate” value is reported as 420. Also, in data set [1], the “ε × 10^3 Substrate” value is listed as 15.8. This compound also came in with a pKa in data set [2] of 6.6. Moreover, in the data set with β-galactosidase [3], the Kcat is recorded as 9.8 × 10^2 mole/min per mole active site and the Michaelis constant (Km) turned out to be 80 µM.

For the compound `CC[n+]1c(C=Cc2ccc(O[C@@H]3O[C@H](CO)[C@H](O)[C@H](O)[C@H]3O)c3ccccc23)ccc2ccccc21` [Compound 26, 1-Ethyl-2-(4'-β-D-galactopyranosyloxynaphthyl-1'-vinylene)-quinoliniumiodide], in data set [1], the “λ max Chromogen” value is 606, the “ε × 10^3 Chromogen” value turned out to be 70.2, the “λ max Shift” value is 172 and the “λ max Substrate” value amounted to 434. Besides, the “ε × 10^3 Substrate” value in data set [1] is on record as 16.0. This compound displayed a pKa in data set [2] of 6.5.

For the compound `CC[n+]1ccc(C=Cc2ccc(O[C@@H]3O[C@H](CO)[C@H](O)[C@H](O)[C@H]3O)c3ccccc23)c2ccccc21` [Compound 29, 1-Ethyl-4-(4'-β-D-galactopyranosyloxynaphthyl-1'-vinylene)-quinoliniumiodide], in data set [1], the “λ max Chromogen” value is on record as “blue” and the “λ max Substrate” value is recorded as “yellow”. For the same compound, the “colour change on addition of β-galactosidase” value with β-galactosidase [4] (50 mM phosphate buffer (pH 7.4)) is on record as “yellow solution turned to blue color”. Moreover, in the data set on β-galactosidase [4] (50 mM phosphate buffer (pH 7.4), yellow to blue), the “time to colour change on addition of β-galactosidase” value was not above 5 s.
